“And” between values parts separate entries of the source, which are not always exact repeats. Equal entries are not always repeated. Where two headings read alike, the source gives them in different places.
Assays:
MOLM-13 cells [1] = assay: Synergy analysis (ZIP, SynergyFinder+) of AF151 and venetoclax on cell viability; format: cell-based, human; conditions: co-treatment with venetoclax, 72 h
Protocol: (§1) To determine cell viability, MOLM-13 cells were treated with the indicated compounds in a 1 : 1 serial dilution, with pure DMSO (final: 0.1%) as the negative control. Briefly, 1000 cells were seeded in black Greiner half-area 96-well plates and incubated for 72 h with inhibitors from DMSO stocks under standard cultivation conditions. Then, Promega CellTiter Glo 2.0 reagent was added to each well according to the manufacturer's protocols, and luminescence was measured using a Tecan Spark 10 M. Experiments were conducted in technical triplicate. Data was normalized to the DMSO control and analyzed with GraphPad Prism 8.0.1 to determine EC50 values. Synergistic effects of venetoclax and AF151 on cell MOLM-13 viability were conducted accordingly, with dilution series of both compounds analyzed using the SynergyFinder+ webtoolkit.[57]

METTL14 = assay: Immunoblotting of METTL14 protein levels in MOLM-13 cells; format: cell-based, human
Protocol: (§2) MOLM-13 were seeded in 12-well cell culture plates at a density of 1 × 10^6 cells per mL and treated with DMSO (final: 0.1%) or different concentrations of PROTAC degraders in DMSO at the indicated times. Treatments were conducted in biological triplicate with varying passages of MOLM-13 cells. The cells were harvested by centrifugation at 500g for 5 min and washed with PBS. The cells were lysed with RIPA lysis buffer with the addition of protease inhibitor (1× cOMPLETE), and insoluble cellular parts were separated by centrifugation (12 000g for 10 min), subsequently, the supernatant was boiled with 1× Laemmli sample buffer (Carl Roth) for 5 min at 95 °C. Proteins were separated by SDS–PAGE on 4–20% Criterion™ TGX™ Precast Protein Gels (Bio-Rad) and transferred to Amersham™ Protean® 0.45 μm nitrocellulose membrane (Cytiva) using semi-dry transfer (25 V, 1 A, Towbin buffer). […] The protein bands were detected via chemiluminescence using Pierce™ ECL western blotting substrate and a Fusion FX imaging system (Vilber). The ImageLab software (Bio-Rad) was used for band quantification.

METTL3/14 = molecular target: T1, METTL3/14 (Homo sapiens, UniProt Q86U44); assay: Fluorescence polarization (FP) displacement assay with METTL3/14; format: binding
T1 construct: human METTL3 (UniProt: Q86U44, aa 252–580); Strep-tag II (C); made in house; host or cells: E. coli BL21 (DE3)
T1 sequence (Q86U44 252-580): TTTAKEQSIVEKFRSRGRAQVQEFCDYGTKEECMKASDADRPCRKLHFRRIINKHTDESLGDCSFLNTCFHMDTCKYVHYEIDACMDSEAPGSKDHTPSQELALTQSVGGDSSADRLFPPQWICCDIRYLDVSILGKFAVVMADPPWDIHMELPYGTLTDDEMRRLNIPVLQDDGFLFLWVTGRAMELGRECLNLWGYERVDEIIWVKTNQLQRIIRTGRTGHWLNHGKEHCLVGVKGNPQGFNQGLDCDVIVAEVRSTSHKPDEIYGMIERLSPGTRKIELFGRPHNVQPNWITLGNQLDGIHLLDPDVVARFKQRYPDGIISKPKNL
T1 sequence (Q9HCE5 108-444 partner limits assumed): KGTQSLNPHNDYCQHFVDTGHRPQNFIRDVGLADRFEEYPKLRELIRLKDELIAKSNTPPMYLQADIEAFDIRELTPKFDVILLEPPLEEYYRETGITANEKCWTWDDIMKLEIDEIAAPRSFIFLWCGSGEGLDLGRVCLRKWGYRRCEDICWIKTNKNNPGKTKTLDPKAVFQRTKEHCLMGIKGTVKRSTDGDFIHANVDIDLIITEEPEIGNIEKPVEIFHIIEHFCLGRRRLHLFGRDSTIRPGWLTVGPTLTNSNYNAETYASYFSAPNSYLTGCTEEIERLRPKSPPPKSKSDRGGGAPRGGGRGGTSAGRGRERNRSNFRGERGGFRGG
Protocol: (§3) Fluorescence polarization (FP) displacement assays with METTL3/14 (ref. [36]) and VCB[38–40] were performed following previous protocols with slight adaptations. All experiments were conducted in black Greiner 96-well half-area plates using a Tecan Spark 10 M plate reader, equipped with polarization filters coupled to a monochromator setup (λex = 480 nm, λem = 530 nm). Reaction mixtures for METTL3/14 contained 300 nM recombinant enzyme, 20 nM FAM-labelled displacement tracer (STM-FL[36]), and the test compounds at varying concentrations in 25 mM Tris HCl, pH 7.5, 100 mM NaCl, and 10% DMSO. For VCB, the mixtures contained 40 nM recombinant enzyme, 10 nM FAM-labelled probe (FAM-DEALAHyp[…], Tocris Bioscience), and the tested compounds, at varying concentrations, in 50 mM Tris, pH 7.5, 200 mM NaCl, 2 mM DTT, and 10% DMSO. […] All measurements were performed at least as technical triplicates. Polarization values (mP) were determined from polarization-specific parallel and orthogonal fluorescence intensities using the Tecan in-built calculation routine. Using GraphPad Prism 8.0.1, the FP values were normalized, and KD values were calculated using a 4-parameter Hill equation: y(% probe bound) = bottom + ([ligand]slope) × (top–bottom)/([ligand]slope + KD slope).

[2] = molecular target: T2, VCB (VHL, elongin B, elongin C) (Homo sapiens, UniProt P40337); assay: FP displacement assay with VCB (binary and ternary KD, cooperativity); format: binding
T2 construct: VHL (UniProt: P40337, aa 1–213); His6 (N); made in house; host or cells: E. coli BL21 (DE3)
T2 sequence (P40337 whole entry, the tested form may be a part): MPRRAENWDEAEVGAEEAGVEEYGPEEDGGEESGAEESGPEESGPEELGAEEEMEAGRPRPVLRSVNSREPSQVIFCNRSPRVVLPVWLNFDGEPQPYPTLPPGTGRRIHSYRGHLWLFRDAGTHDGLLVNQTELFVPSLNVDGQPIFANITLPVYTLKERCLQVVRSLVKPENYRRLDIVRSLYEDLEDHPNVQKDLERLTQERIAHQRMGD
T2 sequence (Q15370 whole entry partner, the tested form may be a part): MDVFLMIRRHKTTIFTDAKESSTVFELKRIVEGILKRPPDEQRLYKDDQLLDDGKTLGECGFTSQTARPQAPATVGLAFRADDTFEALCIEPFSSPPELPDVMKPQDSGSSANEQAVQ
T2 sequence (Q15369 17-112 partner limits assumed): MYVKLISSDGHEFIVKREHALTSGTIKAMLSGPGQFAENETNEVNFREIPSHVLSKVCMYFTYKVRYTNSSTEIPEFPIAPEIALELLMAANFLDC
Protocol: as §3

Bcl-XL = assay: Immunoblotting of Bcl-XL protein levels in MOLM-13 cells; format: cell-based, human; conditions: 2 μM, time course
Protocol: as §2

[3] = system: m^6A levels in MOLM-13 mRNA; assay: RNA m^6A quantification (colorimetric kit); format: cell-based, human; conditions: MOLM-13, AF151 2 μM vs STM2457 10 μM, 24 and 48 h
Protocol: Quantification of m^6A levels upon compound treatment was conducted in analogy to the study introducing the WD6305 PROTAC.[31] MOLM-13 cells were treated with AF151 (2 μM), STM2457 (10 μM), and DMSO in triplicate for 24 and 48 h. Total RNA was isolated as specified above. PolyA mRNA was then isolated using the PolyATtract® mRNA Isolation System (Promega). m^6A levels were quantified using a colorimetric m^6A RNA methylation Assay Kit (Abcam) as specified in the manufacturer's protocol.

METTL14 mRNA = assay: RT-qPCR of METTL14 mRNA expression; format: cell-based, human; conditions: MOLM-13, AF151 2 μM or STM2457 10 μM, 24 h and 48 h
Protocol: (§4) To determine mRNA expression levels of METTL3 and METTL14, MOLM-13 cells were treated in triplicate with compound 41 (AF151, 2 μM), STM2457 (10 μM), and DMSO for 24 resp. 48 h. Afterward, total RNA was extracted using the TRIzol™ reagent (Thermo Fisher Scientific) and purified with the Monarch® Spin RNA Cleanup Kit (New England Biolabs). RT-qPCR was conducted using the two-step GoTaq® RT-qPCR system (Promega) following the manufacturer's protocol. The data were normalized to the DMSO control and GAPDH housekeeping gene (ΔΔCt) using GraphPad Prism 8.0.1.

METTL3 mRNA = assay: RT-qPCR of METTL3 mRNA expression; format: cell-based, human; conditions: MOLM-13, AF151 2 μM or STM2457 10 μM, 24 h and 48 h
Protocol: as §4

human VHL = molecular target: T3, human VHL (Homo sapiens, UniProt P40337); assay: HTRF human VHL binding kit
T3 construct: purchased Revvity
T3 sequence (P40337 whole entry): as the sequence (P40337 whole entry, the tested form may be a part) above
T3 sequence (Q15370 whole entry partner): as the sequence (Q15370 whole entry partner, the tested form may be a part) above
T3 sequence (Q15369 whole entry partner): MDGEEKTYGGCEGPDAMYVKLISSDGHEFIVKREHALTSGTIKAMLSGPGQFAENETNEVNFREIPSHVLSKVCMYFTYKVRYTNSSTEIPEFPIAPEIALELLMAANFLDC
Protocol: PROTACs binding to VHL or CRBN were measured using a homogeneous time-resolved fluorescence (HTRF) human VHL or CRBN binding kit (Revvity). Samples were prepared according to the manufacturer's protocol, with compounds diluted in the provided diluent while maintaining a constant DMSO concentration with a final concentration of 1.25%. For the ternary KD determinations, METTL3/14 was added at 4 μM, corresponding to approximately a 20- to 40-fold excess of binary KD, while all other component concentrations were kept as specified in the protocol. Measurements were performed in triplicate using a Tecan Spark 10 M plate reader, recording donor and acceptor emissions at λem_donor = 620 nm and λem_acceptor = 665 nm, respectively, following excitation of the HTRF donor at λex = 320 nm. The acceptor-to-donor emission ratio was calculated as ratio = signal 665 nm/signal 620 nm. Using GraphPad Prism 8.0.1, the fluorescence values were normalized, and KD values were calculated as specified above.

Mcl-1 = assay: Immunoblotting of Mcl-1 protein levels in MOLM-13 cells; format: cell-based, human; conditions: 2 μM, time course
Protocol: as §2

MOLM-13 cells [4] = assay: Real-time annexin V apoptosis assay; format: cell-based, human; conditions: MOLM-13, dose-dependent, monitored over 48 h
Protocol: MOLM-13 cells were treated with AF151 at the indicated concentrations for 48 h, with DMSO (final: 0.1%) as the negative control. Apoptosis of technical triplicate samples was detected in real-time using the RealTime-Glo™ annexin V apoptosis assay kit (Promega), following the manufacturer's protocol. Data were plotted using GraphPad Prism 8.0.1.

MOLM-13 cells [5] = assay: Cell viability assay (CellTiter Glo 2.0); format: cell-based, human; conditions: MOLM-13, 72 h, read-out: IC50 (cell viability inhibition)
Protocol: as §1

Bcl-2 = assay: Immunoblotting of Bcl-2 protein levels in MOLM-13 cells; format: cell-based, human; conditions: 2 μM, time course
Protocol: as §2

METTL3 [6] = molecular target: T4, METTL3 (Homo sapiens, UniProt Q86U44); assay: Immunoblotting of METTL3 protein levels in MOLM-13 cells; format: cell-based
T4 construct: endogenous in cells; host or cells: MOLM-13
T4 sequence (Q86U44 whole entry): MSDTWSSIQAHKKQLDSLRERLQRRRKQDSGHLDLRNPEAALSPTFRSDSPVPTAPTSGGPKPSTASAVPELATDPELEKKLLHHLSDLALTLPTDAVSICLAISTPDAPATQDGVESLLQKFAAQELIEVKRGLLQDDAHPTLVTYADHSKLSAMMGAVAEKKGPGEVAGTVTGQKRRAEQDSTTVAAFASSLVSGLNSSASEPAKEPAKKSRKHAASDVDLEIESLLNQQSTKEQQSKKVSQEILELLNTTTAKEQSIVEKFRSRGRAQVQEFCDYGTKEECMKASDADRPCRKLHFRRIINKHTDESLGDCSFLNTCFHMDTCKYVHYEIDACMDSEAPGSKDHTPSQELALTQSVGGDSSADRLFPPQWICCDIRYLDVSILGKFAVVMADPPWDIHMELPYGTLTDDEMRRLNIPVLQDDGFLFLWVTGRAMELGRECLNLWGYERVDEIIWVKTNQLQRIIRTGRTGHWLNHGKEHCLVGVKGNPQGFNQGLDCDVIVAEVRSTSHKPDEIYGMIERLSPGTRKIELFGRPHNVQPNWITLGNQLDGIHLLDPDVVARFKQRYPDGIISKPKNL
Protocol: MOLM-13 were seeded in 12-well cell culture plates at a density of 1 × 10^6 cells per mL and treated with DMSO (final: 0.1%) or different concentrations of PROTAC degraders in DMSO at the indicated times. Treatments were conducted in biological triplicate with varying passages of MOLM-13 cells. The cells were harvested by centrifugation at 500g for 5 min and washed with PBS. The cells were lysed with RIPA lysis buffer with the addition of protease inhibitor (1× cOMPLETE), and insoluble cellular parts were separated by centrifugation (12 000g for 10 min), subsequently, the supernatant was boiled with 1× Laemmli sample buffer (Carl Roth) for 5 min at 95 °C. Proteins were separated by SDS–PAGE on 4–20% Criterion™ TGX™ Precast Protein Gels (Bio-Rad) and transferred to Amersham™ Protean® 0.45 μm nitrocellulose membrane (Cytiva) using semi-dry transfer (25 V, 1 A, Towbin buffer). The membrane was blocked with 5% milk (Carl Roth) in TBST buffer and incubated with the following primary antibodies: Anti-METTL3 (1 : 1000, Abcam, ab195352), anti-METTL14 (1 : 1000, Abcam, ab220030), anti-Bcl2 (1 : 1000, Cell Signaling Technology [CST], EPR16891), anti-Mcl-1 (1 : 1000, CST, 5453 T), anti-Bcl-XL (1 : 1000, CST, 2764 T), anti-vinculin (1 : 1000, CST, 13901) or anti-GAPDH (1 : 5000, CST, D17C4) overnight at 4 °C. Subsequently, the membrane was incubated for 1 h at RT with secondary antibodies: anti-rabbit (1 : 2000, VWR, NA934) or anti-mouse (1 : 2000, VWR, 102646-160). The protein bands were detected via chemiluminescence using Pierce™ ECL western blotting substrate and a Fusion FX imaging system (Vilber). The ImageLab software (Bio-Rad) was used for band quantification.

METTL3 [7] = molecular target: METTL3; set-up: method as in PMID 33902106; conditions: cited from earlier work

Cc1ncsc1-c1ccc(CNC(=O)[C@@H]2C[C@@H](O)CN2C(=O)[C@@H](NC(=O)CCc2ccc(-c3ccc(COc4cncc(C(=O)NCc5ccc6cc(CN7CCC(C)(C)CC7)[nH]c6c5)c4)cc3)cc2)C(C)(C)C)cc1 [compound 41]
maximum ZIP synergy score (MOLM-13 cells [1]): 28.87 | mean ZIP synergy score (MOLM-13 cells [1]): 3.38 | METTL14 protein level relative to DMSO (transient increase) (METTL14; 2 μM, after 1 h, MOLM-13): ~150% | METTL14 degradation (Western blot) (METTL14; MOLM-13, 1 μM, 16 h): significant degradation | Kd (METTL3/14): 159 ± 26 nM | Kd ([2]; absence of METTL3, read-out: KD binary (VHL)): 363 nM | Kd ([2]; presence of METTL3/14 (12 μM), read-out: KD ternary (VHL)): 79.9 nM and 77 nM | effect on Bcl-XL protein level (Bcl-XL): but not Bcl-XL | global m^6A level reduction in mRNA [3]: more pronounced m^6A reduction | METTL14 mRNA level (ΔΔCt) (METTL14 mRNA): no significant changes | METTL3 mRNA level (ΔΔCt) (METTL3 mRNA): no significant changes | Kd (human VHL; HTRF Human VHL Binding Kit, binary, read-out: KD E3-ligases (VHL, HTRF)): 740 ± 113 nM | cooperativity (HTRF) (human VHL; VHL affinity in presence and absence of METTL3/14 (4 μM)): positive cooperativity | effect on Mcl-1 protein level (Mcl-1): time-dependent reduction | time to apoptosis induction (MOLM-13 cells [4]): approximately 10 h | IC50 (MOLM-13 cells [5]; Homo sapiens): 450 nM | effect on Bcl-2 protein level (Bcl-2): time-dependent reduction | t1/2 of Bcl-2 protein level decrease (Bcl-2): 18 h | time for which maximal METTL3 degradation is maintained (METTL3 [6]; 2 μM, time course, MOLM-13): at least 48 h | time of maximal METTL3 degradation effect (METTL3 [6]; 2 μM, time course, MOLM-13): 24 h | METTL3 reduction (METTL3 [6]; 2 μM, within the first 6 h of treatment, MOLM-13): over 50% | METTL3 degradation (Western blot) (METTL3 [6]; MOLM-13, 1 μM, 16 h): significant degradation | concentration of hook effect (METTL3 degradation decreased) (METTL3 [6]; MOLM-13, 16 h): > 5 µM | DC50 (METTL3 [6]; MOLM-13, 16 h treatment, read-out: DC50 (METTL3 degradation)): 430 nM | METTL3 degradation on co-treatment with MLN4924 (METTL3 [6]; MOLM-13, MLN4924 1 μM): suppressed METTL3 degradation | Dmax at 2.5 µM (METTL3 [6]; MOLM-13, MOLM-13, 16 h, maximal degradation occurred at 2.5 μM): 95% | METTL3 degradation on co-treatment with STM2457 (METTL3 [6]; MOLM-13, STM2457 20 μM): inhibited degradation | METTL3 degradation on co-treatment with VH032 (METTL3 [6]; MOLM-13, VH032 10 μM): suppressed METTL3 degradation | METTL3 degradation on co-treatment with bortezomib (METTL3 [6]; MOLM-13, bortezomib 1 μM): suppressed METTL3 degradation

STM2457 [reference compound]
METTL14 mRNA level (ΔΔCt) (METTL14 mRNA): no significant changes | METTL3 mRNA level (ΔΔCt) (METTL3 mRNA): no significant changes | Kd (METTL3 [7]): 1.4 nM | IC50 (MOLM-13 cells [5]): 1820 nM | METTL3 degradation (Western blot screening) (METTL3 [6]; MOLM-13, 0.1-10 μM, 16 h): do not func?on as METTL3 degraders

Source: paper PMC12207533, “Structure-guided design of a methyltransferase-like 3 (METTL3) proteolysis targeting chimera (PROTAC) incorporating an indole–nicotinamide chemotype” (RSC Medicinal Chemistry, 2025)
